Reference: patent publication US20250346585A1 (Alexion Pharmaceuticals, Inc., priority 2022, published 2025)
Read-outs that look alike come from different tables or passages of the source.

Biological target: Human complement C1s enzyme (Homo sapiens (Human), UniProt P09871)
Test: Human C1s enzyme assay
Assay type: biochemical
Conditions: read-out: IC50 (Stars)
How it was run: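 IC50 derived by nonlinear regression of rate versus concentration, with rate taken from A405 kinetics (30 s intervals, 30 min) after adding 100 μM each Z-L-Lys-SBzl and DTNB. C1s from human serum, 1.16 nM, exposed to compound for 5 min at RT beforehand; buffer 50 mM Tris, 1 M NaCl, pH 7.5.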

[1] = Human complement C1s enzyme 1.16 nM, substrate Z-L-Lys-SBzl 100 μM, assay of Example 3
[2] = Human C1s enzyme assay of Example 3

Chain of Human complement C1s enzyme (P09871 438-688 limits assumed): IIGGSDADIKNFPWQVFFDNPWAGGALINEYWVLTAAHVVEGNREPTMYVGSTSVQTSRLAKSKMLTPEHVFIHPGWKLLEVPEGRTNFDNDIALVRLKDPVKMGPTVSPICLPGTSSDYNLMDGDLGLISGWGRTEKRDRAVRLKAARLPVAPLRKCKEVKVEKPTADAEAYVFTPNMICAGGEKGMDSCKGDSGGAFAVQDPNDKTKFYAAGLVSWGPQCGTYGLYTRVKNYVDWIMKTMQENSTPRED
Chain of Human complement C1s enzyme (P09871 16-437 partner limits assumed): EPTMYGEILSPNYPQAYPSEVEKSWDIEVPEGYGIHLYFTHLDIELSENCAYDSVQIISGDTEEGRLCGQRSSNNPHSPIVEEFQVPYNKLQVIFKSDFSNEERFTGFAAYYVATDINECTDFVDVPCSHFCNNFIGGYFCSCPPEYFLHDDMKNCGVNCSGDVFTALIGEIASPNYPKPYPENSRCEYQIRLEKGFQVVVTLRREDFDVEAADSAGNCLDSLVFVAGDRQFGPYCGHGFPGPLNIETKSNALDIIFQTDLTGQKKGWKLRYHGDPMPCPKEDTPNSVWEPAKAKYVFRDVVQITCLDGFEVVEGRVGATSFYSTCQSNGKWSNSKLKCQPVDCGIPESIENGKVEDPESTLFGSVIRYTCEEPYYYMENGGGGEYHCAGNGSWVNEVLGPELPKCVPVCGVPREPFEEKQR

Row | Structure (SMILES) | IC50 [1] [nM] | IC50 [2] [nM]
1 | C=C1C[C@@H](C(=O)N[C@H](C)c2cc(C(=N)N)cs2)N(C(=O)CNC(=O)c2ccc3c(c2)-c2ccccc2C3(F)F)C1 [Compound 203, (S)—N—((R)-1-(4-carbamimidoylthiophen-2-yl)ethyl)-1-((9,9-difluoro-9H-fluorene-3-carbonyl)glycyl)-4-methylenepyrrolidine-2-carboxamide] | < 100 | –
2 | N=C(N)c1csc(CNC(=O)[C@@H]2CC3(CN2C(=O)CNC(=O)c2ncc(-c4ccccc4)cc2F)OCCO3)c1 [Compound 105, (S)—N-((4-carbamimidoylthiophen-2-yl)methyl)-7-((3-fluoro-5-phenylpicolinoyl)glycyl)-1,4-dioxa-7-azaspiro[4.4]nonane-8-carboxamide] | – | < 100
3 | CC1(C)c2ccccc2-c2cc(C(=O)NCC(=O)N3CC4(C[C@H]3C(=O)NCc3cc(C(=N)N)cs3)OCCO4)ccc21 [Compound 60, (S)—N-((4-carbamimidoylthiophen-2-yl)methyl)-7-((9,9-dimethyl-9H-fluorene-3-carbonyl)glycyl)-1,4-dioxa-7-azaspiro[4.4]nonane-8-carboxamide] | – | < 100
4 | Cc1nc(F)ccc1-c1ccc(C(=O)NCC(=O)N2CC3(C[C@H]2C(=O)NCc2cc(C(=N)N)cs2)OCCO3)cc1 [Compound 211, (S)—N-((4-carbamimidoylthiophen-2-yl)methyl)-7-((4-(6-fluoro-2-methylpyridin-3-yl)benzoyl)glycyl)-1,4-dioxa-7-azaspiro[4.4]nonane-8-carboxamide] | < 100 | –
5 | CO[C@@H]1C[C@@H](C(=O)N[C@H](CO)c2cc(C(=N)N)cs2)N(C(=O)CNC(=O)c2ccc3c(c2)-c2ccccc2C3(C)C)C1 [Compound 395, (2S,4R)—N—((R)-1-(4-carbamimidoylthiophen-2-yl)-2-hydroxyethyl)-1-((9,9-dimethyl-9H-fluorene-3-carbonyl)glycyl)-4-methoxypyrrolidine-2-carboxamide] | < 100 | –
6 | C[C@@H](NC(=O)[C@@H]1C[C@](F)(CF)CN1C(=O)CNC(=O)c1ccc2c(c1)Oc1ccccc1S2)c1cc(C(=N)N)cs1 [Compound 327, (2S,4R)—N—((R)-1-(4-carbamimidoylthiophen-2-yl)ethyl)-4-fluoro-4-(fluoromethyl)-1-((phenoxathiine-3-carbonyl)glycyl)pyrrolidine-2-carboxamide] | < 100 | –
7 | N=C(N)c1csc(CNC(=O)[C@@H]2C[C@@H](OC(F)F)CN2C(=O)CNC(=O)c2ccc(Oc3ccc(F)cc3)cc2)c1 [Compound 3, (2S,4R)—N-((4-carbamimidoylthiophen-2-yl)methyl)-4-(difluoromethoxy)-1-((4-(4-fluorophenoxy)benzoyl)glycyl)pyrrolidine-2-carboxamide] | – | < 100
8 | C[C@@H](NC(=O)[C@@H]1CC2(CN1C(=O)CNC(=O)c1ccc3c(c1)-c1ccc(Cl)cc1C3(F)F)OCCO2)c1cc(C(=N)N)cs1 [Compound 192, (8S)—N-[(1R)-1-(4-carbamimidoylthiophen-2-yl)ethyl]-7-{2-[(7-chloro-9,9-difluorofluoren-3-yl)formamido]acetyl}-1,4-dioxa-7-azaspiro[4.4]nonane-8-carboxamide] | – | < 100
9 | C[C@@H](NC(=O)[C@@H]1C[C@H](c2ccncc2)CN1C(=O)CNC(=O)c1ccc2c(c1)-c1ccccc1C2(F)F)c1cc(C(=N)N)cs1 [Compound 370, (2S,4R)—N—((R)-1-(4-carbamimidoylthiophen-2-yl)ethyl)-1-((9,9-difluoro-9H-fluorene-3-carbonyl)glycyl)-4-(pyridin-4-yl)pyrrolidine-2-carboxamide] | < 100 | –
10 | COC[C@@]1(F)C[C@@H](C(=O)NCc2ccc(C(=N)N)s2)N(C(=O)CNC(=O)c2ccc(Oc3ccc(F)cc3)cc2)C1 [Compound 68, (2S,4R)—N-((5-carbamimidoylthiophen-2-yl)methyl)-4-fluoro-1-((4-(4-fluorophenoxy)benzoyl)glycyl)-4-(methoxymethyl)pyrrolidine-2-carboxamide] | – | < 100
